Test results as given in PMC12412615, “Tailored SirReal-type inhibitors enhance SIRT2 inhibition through ligand stabilization and disruption of NAD^+ co-factor binding” (RSC Medicinal Chemistry, 2025).

How the values were obtained:
human SIRT5 = target: T1, human SIRT5 (Homo sapiens, UniProt Q9NXA8); assay: Fluorescence-based sirtuin subtype selectivity assay, SIRT5, single dose 50 μM; type: biochemical; settings: 50 μM compound; mean, n = 2
T1 construct: purchased Reaction Biology Corporation (Malvern, USA), contract assay
T1 sequence (Q9NXA8 37-310): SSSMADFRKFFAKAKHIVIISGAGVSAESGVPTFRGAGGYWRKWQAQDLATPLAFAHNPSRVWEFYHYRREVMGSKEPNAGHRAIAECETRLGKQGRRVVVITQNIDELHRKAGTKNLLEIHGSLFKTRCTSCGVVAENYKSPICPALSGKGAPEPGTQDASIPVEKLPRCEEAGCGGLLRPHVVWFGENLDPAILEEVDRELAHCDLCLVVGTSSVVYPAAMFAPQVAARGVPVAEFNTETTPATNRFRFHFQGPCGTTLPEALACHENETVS
Experimental: IC50 values against SIRT2 are given as mean with standard deviations (n = 3). Inhibition percentages at 50 μM for SIRT1, 3 and 5 are given as mean without standard deviations (n = 2)
The determination of subtype selectivity against SIRT1, 3 and 5 was performed by measuring the residual enzyme activity after treatment with the corresponding inhibitor at a fixed concentration of 50 μM and subsequent calculation of the percentage inhibition.
(§1) The determination of inhibitory activity on the corresponding sirtuin enzymes was carried out based on a fluorescence-based assay commissioned by Reaction Biology Corporation (Malvern, USA) following an internal experimental protocol. Test substances were prepared in DMSO, delivered into the respective enzyme mixture (prepared with reaction buffer: Tris-HCl, pH = 8) and incubated for 10 minutes at 30 °C. Subsequently the substrate mixture (NAD^+ and a 7-amino-4-methylcoumarin-based fluorogenic peptide substrate) was added to initiate the deacetylation reaction. After 2 hours incubation at 30 °C, 2 mM nicotinamide (universal sirtuin inhibitor, to stop the reaction) and protease-based developer (to generate fluorescence by the cleavage of 7-amino-4-methylcoumarin) was added. At 30 °C 1 hour later, the respective fluorescence was measured (extinction/emission = 360 nm/460 nm). The inhibitory effect of the test compounds is indirectly proportional to the amount of converted fluorescent substrate standardized as 100% activity of the control without inhibitor. The test substances were tested in 10-dose IC50 triplicate mode, with 3-fold serial dilution starting at 50 μM final reaction concentration and if necessary, starting at 100 μM. For each serially diluted replicate of the triplicate, an IC50 value was determined by sigmoidal curve fitting, resulting in three IC50 values, from which the mean and corresponding standard deviation were subsequently calculated. Data processing was performed based on Prism 8.0.2 software (GraphPad Software, Boston, USA). Subtype selectivity on SIRT1, SIRT3 and SIRT5 was evaluated in a single dose duplicate mode at 50 μM final test compound concentration according to previous outlined internal protocol of Reaction Biology Corporation by determining the enzyme activity of the respective sirtuins in % (no inhibitor control as 100% activity).

SIRT2 = target: T2, SIRT2 (Homo sapiens, UniProt Q8IXJ6); assay: Fluorescence-based SIRT2 deacetylation inhibition assay (Reaction Biology Corporation); type: biochemical; parameters: purchased Reaction Biology Corporation (Malvern, USA), contract assay
T2 sequence (Q8IXJ6 1-389): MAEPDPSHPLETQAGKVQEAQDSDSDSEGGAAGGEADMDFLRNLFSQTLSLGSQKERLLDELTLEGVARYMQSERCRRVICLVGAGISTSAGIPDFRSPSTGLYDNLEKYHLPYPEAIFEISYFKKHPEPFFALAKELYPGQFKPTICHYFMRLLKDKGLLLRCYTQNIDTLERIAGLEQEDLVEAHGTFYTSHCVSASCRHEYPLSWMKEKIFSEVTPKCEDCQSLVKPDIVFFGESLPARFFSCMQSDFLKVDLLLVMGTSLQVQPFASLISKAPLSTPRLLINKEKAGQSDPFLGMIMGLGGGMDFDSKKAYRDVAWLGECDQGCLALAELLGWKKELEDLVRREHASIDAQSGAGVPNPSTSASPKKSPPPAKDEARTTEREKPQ
Experimental: The determination of SIRT2 inhibitory activity was performed by Reaction Biology Corporation (Malvern, USA) with a fluorescence-based assay utilizing the fluorogenic peptide of p53 residues 379–382 (RHKK(Ac)-Fl). […]. […] […]. On the contrary, we observed a significant increase in potency by the introduction of halogens at the R^2 position (compounds 29–31), highlighting the importance of the position of the functional group modifications. […]. […] Additional factors such as the atomic radius and thus steric requirements of these halogens may also play a significant role in the increase in potency, where the smaller chlorine atom may experience less steric effects upon binding at the active site compared to the larger bromine and iodine atoms. […]. […] IC50 values against SIRT2 are given as mean with standard deviations (n = 3). Inhibition percentages at 50 μM for SIRT1, 3 and 5 are given as mean without standard deviations (n = 2)
as §1

For `Cc1cc(C)nc(SCC(=O)Nc2cccc(COc3ccc(NC(=O)c4cnn(C)c4)c(Cl)c3)c2)n1` [Compound 29, N-(2-Chloro-4-((3-(2-((4,6-dimethylpyrimidin-2-yl)thio)acetamido)benzyl)oxy)phenyl)-1-methyl-1H-pyrazole-4-carboxamide], the inhibition at 50 µM (human SIRT5) was 7%, the “Fold increase in SIRT2 potency compared to lead structure” value (SIRT2; 29 vs 24a, 46 vs SirReal2) was 3 fold and the IC50 (SIRT2; fluorogenic peptide of p53 residues 379–382 (RHKK(Ac)-Fl), mean with standard deviation, n = 3) was 26 ± 2 nM.
